Reference: PubChem BioAssay (NCI)
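Compound exposure: 48 hours, 5 concentrations, 96-well plates. Here, GI50 denotes the concentration required for 50% inhibition of growth. TGI denotes the concentration required for complete inhibition of growth.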

What was measured:
Experiment in all cases: NCI tumour cell line growth inhibition, 48 h
[1] = system: OVCAR-8 ovarian
[2] = system: MOLT-4 leukemia
[3] = system: ACHN renal
[4] = system: SF-268 CNS
[5] = system: M14 melanoma
[6] = system: SR leukemia
[7] = system: OVCAR-3 ovarian
[8] = system: UACC-62 melanoma
[9] = system: KM12 colon
[10] = system: EKVX NSCLC

`O=c1ccnc2c1ccc1[nH]cccc12` was tested, and the TGI [1] was > 100 µM, the TGI [2] was > 100 µM and the TGI [3] was > 100 µM. For the same molecule, the TGI [4] was > 100 µM, the TGI [5] was > 100 µM and the TGI [6] was > 100 µM. For the same molecule, the TGI [7] was > 100 µM, the TGI [8] was > 100 µM and the TGI [9] was > 100 µM. For the same molecule, the TGI [10] was > 100 µM.
`CC(=O)N/C(=C\c1cccc([N+](=O)[O-])c1)c1nc2c3c(ccc2[nH]1)C(=O)c1ccccc1C3=O` was tested, and the TGI [1] was > 100 µM, the TGI [2] was > 62.9 µM and the TGI [3] was 47.9 µM. For the same molecule, the TGI [4] was > 100 µM, the TGI [5] was > 100 µM and the TGI [6] was > 100 µM. For the same molecule, the TGI [7] was > 100 µM, the TGI [8] was > 100 µM and the TGI [9] was > 100 µM. The TGI [10] was > 100 µM.
For `CC1(C)CCC[C@@]2(C)C1CC[C@H]1CC(O)C3(C)CCC12C3` (stereo partly drawn), the TGI [1] was 32.6 µM, the TGI [2] was 44.5 µM and the TGI [3] was 31.8 µM. It also gave a TGI [4] of 40.9 µM, a TGI [5] of 31 µM and a TGI [6] of 46.7 µM. The TGI [7] was 30.7 µM, the TGI [8] was 29.2 µM and the TGI [9] was 31.3 µM.
In the case of `C[C@@H]1N=C(c2ccc(Br)cc2)Nc2nc3ccccn3c2C1=O`, the GI50 [1] is reported as 17 µM, the TGI [1] is reported as > 100 µM and the GI50 [2] is reported as 12.8 µM. The TGI [2] was > 100 µM, the GI50 [3] was 6.75 µM and the TGI [3] was > 100 µM. For the same molecule, the GI50 [4] was 17.2 µM, the TGI [4] was > 100 µM and the GI50 [5] was 3.6 µM. For the same molecule, the TGI [5] was 48.2 µM, the GI50 [6] was 2.42 µM and the TGI [6] was > 100 µM. The GI50 [7] was 3.34 µM, the TGI [7] was 17.8 µM and the GI50 [8] was 4.35 µM. The TGI [8] was > 100 µM, the GI50 [9] was 3.39 µM and the TGI [9] was > 100 µM.
`O=c1[nH]ccc2nc(N3CCC(O)CC3)nc(Nc3cccc(C(F)(F)F)c3)c12` showed a GI50 [1] of 3.29 µM, a TGI [1] of 40.6 µM and a GI50 [2] of 2.24 µM. The TGI [2] was 7.75 µM, the GI50 [3] was 0.702 µM and the TGI [3] was 84.7 µM. The GI50 [4] was 3.06 µM, the TGI [4] was 35.3 µM and the GI50 [5] was 1.55 µM. For the same molecule, the TGI [5] was 8.23 µM, the GI50 [6] was 0.707 µM and the TGI [6] was 26.9 µM. For the same molecule, the GI50 [7] was 1.34 µM, the TGI [7] was 3.98 µM and the GI50 [8] was 1.84 µM. It also gave a TGI [8] of 6.95 µM, a GI50 [9] of 1.44 µM and a TGI [9] of 5.42 µM. For the same molecule, the GI50 [10] was 2.85 µM and the TGI [10] was 12.1 µM.
`CC(=O)Nc1c(C)ccc2c1C(=O)c1ccccc1C2=O` was tested, and the TGI [1] was > 100 µM, the TGI [2] was > 100 µM and the TGI [3] was > 100 µM. For the same molecule, the TGI [4] was > 100 µM, the TGI [5] was > 100 µM and the TGI [6] was > 100 µM. For the same molecule, the TGI [8] was > 100 µM and the TGI [9] was > 100 µM.
For `Cc1ccc(/C=C/C(=O)c2sc(-c3cccnc3)nc2C)cc1`, the TGI [1] was > 100 µM, the TGI [2] was > 100 µM and the TGI [3] was > 100 µM. For the same molecule, the TGI [7] was > 100 µM, the TGI [8] was > 100 µM and the TGI [9] was > 100 µM. For the same molecule, the TGI [10] was > 100 µM.
`O=C([CH-]C(=O)c1ccccc1)c1ccccc1.O=C([CH-]C(=O)c1ccccc1)c1ccccc1.O=C([CH-]C(=O)c1ccccc1)c1ccccc1.[OH3+].[Y+3]` gave a GI50 [1] of 3.5 µM, a TGI [1] of 21.8 µM and a GI50 [2] of 2.96 µM. The TGI [2] was 20.5 µM, the GI50 [3] was 6.34 µM and the TGI [3] was 21.9 µM. For the same molecule, the GI50 [4] was 4.8 µM, the TGI [4] was 31 µM and the GI50 [5] was 9.36 µM. For the same molecule, the TGI [5] was 22 µM, the GI50 [7] was 5 µM and the TGI [7] was 17.3 µM. It also gave a GI50 [8] of 5.73 µM, a TGI [8] of 22.3 µM and a GI50 [9] of 5.38 µM. It also gave a TGI [9] of 24 µM, a GI50 [10] of 3.32 µM and a TGI [10] of 23.1 µM.
For `CC[O-].CC[O-].O=C1C(c2ccccc2)=C([O-])c2ccccc21.O=C1C(c2ccccc2)=C([O-])c2ccccc21.[Ti+4]`, the GI50 [1] was > 100 µM, the TGI [1] was > 100 µM and the GI50 [2] was > 100 µM. For the same molecule, the TGI [2] was > 100 µM, the GI50 [3] was > 100 µM and the TGI [3] was > 100 µM. The GI50 [4] was > 100 µM, the TGI [4] was > 100 µM and the GI50 [5] was > 100 µM. The TGI [5] was > 100 µM, the GI50 [7] was > 100 µM and the TGI [7] was > 100 µM. The GI50 [8] was 72.6 µM, the TGI [8] was > 100 µM and the GI50 [9] was 62.9 µM. For the same molecule, the TGI [9] was > 100 µM, the GI50 [10] was 60.1 µM and the TGI [10] was > 100 µM.
